{"source": "ChEMBL document CHEMBL2021794", "about": "“Synthesis, σ₁, σ₂-receptors binding affinity and antiproliferative action of new C1-substituted adamantanes” (Bioorg Med Chem, 2012)", "key": {"IGROV-1 [1]": {"test_system": "IGROV-1", "experiment": "Induction of apoptosis in human IGROV1 cells assessed as total apoptotic death cells at 0.5 uM after 24 hrs by Annexin V/7-AAD staining based flow cytometry (reference value: 13%)", "type": "functional"}, "BXPC-3 [2]": {"test_system": "BXPC-3", "experiment": "Cell cycle arrest in human BxPC3 cells assessed as accumulation at G2 phase at 0.5 uM after 24 hrs by propidium iodide staining based flow cytometry (reference value: 12%)", "type": "functional"}, "PC-3 [3]": {"test_system": "PC-3", "experiment": "Cell cycle arrest in human PC3 cells assessed as accumulation at S phase at 5 uM after 24 hrs by propidium iodide staining based flow cytometry (reference value: 42%)", "type": "functional"}, "BXPC-3 [4]": {"test_system": "BXPC-3", "experiment": "Induction of apoptosis in human BxPC3 cells assessed as early apoptotic cells at 15 uM after 24 hrs by Annexin V/7-AAD staining based flow cytometry (reference value: 11%)", "type": "functional"}, "PC-3 [5]": {"test_system": "PC-3", "experiment": "Cell cycle arrest in human PC3 cells assessed as accumulation at < G1 phase at 0.5 uM after 24 hrs by propidium iodide staining based flow cytometry (reference value: 4%)", "type": "functional"}, "IGROV-1 [6]": {"test_system": "IGROV-1", "experiment": "Cell cycle arrest in human IGROV1 cells assessed as accumulation at >G2 phase at 15 uM after 24 hrs by propidium iodide staining based flow cytometry (reference value: 21%)", "type": "functional"}, "BXPC-3 [7]": {"test_system": "BXPC-3", "experiment": "Cell cycle arrest in human BxPC3 cells assessed as accumulation at >G2 phase at 15 uM after 24 hrs by propidium iodide staining based flow cytometry (reference value: 6%)", "type": "functional"}, "PC-3 [8]": {"test_system": "PC-3", "experiment": "Cell cycle arrest in human PC3 cells assessed as accumulation at G1 phase at 5 uM after 24 hrs by propidium iodide staining based flow cytometry (reference value: 36%)", "type": "functional"}, "BXPC-3 [9]": {"test_system": "BXPC-3", "experiment": "Induction of apoptosis in human BxPC3 cells assessed as late apoptotic cells at 5 uM after 24 hrs by Annexin V/7-AAD staining based flow cytometry (reference value: 9%)", "type": "functional"}, "[10]": {"experiment": "(§1) Growth inhibition of NHDF cells after 48 hrs by SRB assay", "type": "cell-based", "conditions": "human, NHDF cells"}, "NHDF": {"test_system": "NHDF", "experiment": "as §1", "type": "cell-based", "conditions": "human, nhdf, 48 h"}, "PC-3 [11]": {"test_system": "PC-3", "experiment": "Cell cycle arrest in human PC3 cells assessed as accumulation at < G1 phase at 5 uM after 24 hrs by propidium iodide staining based flow cytometry (reference value: 4%)", "type": "functional"}, "[12]": {"experiment": "Displacement of [3H](+)1-DTG from sigma-2 receptor expressed in rat cerebral cortex membranes after 2 hrs by liquid scintillation spectroscopy", "type": "cell membranes, Membrane"}, "BXPC-3 [13]": {"test_system": "BXPC-3", "experiment": "Cell cycle arrest in human BxPC3 cells assessed as accumulation at G1 phase at 5 uM after 24 hrs by propidium iodide staining based flow cytometry (reference value: 41%)", "type": "functional"}, "PC-3 [14]": {"test_system": "PC-3", "experiment": "Cell cycle arrest in human PC3 cells assessed as accumulation at G2 phase at 0.5 uM after 24 hrs by propidium iodide staining based flow cytometry (reference value: 13%)", "type": "functional"}, "IGROV-1 [15]": {"test_system": "IGROV-1", "experiment": "Cell cycle arrest in human IGROV1 cells assessed as accumulation at < G1 phase at 0.5 uM after 24 hrs by propidium iodide staining based flow cytometry (reference value: 4%)", "type": "functional"}, "PC-3 [16]": {"test_system": "PC-3", "experiment": "Cell cycle arrest in human PC3 cells assessed as accumulation at G2 phase at 5 uM after 24 hrs by propidium iodide staining based flow cytometry (reference value: 13%)", "type": "functional"}, "IGROV-1 [17]": {"test_system": "IGROV-1", "experiment": "Cell cycle arrest in human IGROV1 cells assessed as accumulation at S phase at 5 uM after 24 hrs by propidium iodide staining based flow cytometry (reference value: 29%)", "type": "functional"}, "SF-268": {"test_system": "SF-268", "experiment": "Cytotoxicity against human SF268 cells after 48 hrs by trypan blue assay", "type": "functional, cell-based"}, "BXPC-3 [18]": {"test_system": "BXPC-3", "experiment": "Cell cycle arrest in human BxPC3 cells assessed as accumulation at S phase at 50 uM after 24 hrs by propidium iodide staining based flow cytometry (reference value: 33%)", "type": "functional"}, "LOX IMVI": {"test_system": "LOX IMVI", "experiment": "Growth inhibition of human LOXIMVI cells after 48 hrs by SRB assay", "type": "functional"}, "IGROV-1 [19]": {"test_system": "IGROV-1", "experiment": "Cell cycle arrest in human IGROV1 cells assessed as accumulation at >G2 phase at 5 uM after 24 hrs by propidium iodide staining based flow cytometry (reference value: 21%)", "type": "functional"}, "PC-3 [20]": {"test_system": "PC-3", "experiment": "Induction of apoptosis in human PC3 cells assessed as late apoptotic cells at 15 uM after 24 hrs by Annexin V/7-AAD staining based flow cytometry (reference value: 2%)", "type": "functional"}, "BXPC-3 [21]": {"test_system": "BXPC-3", "experiment": "Cell cycle arrest in human BxPC3 cells assessed as accumulation at G2 phase at 15 uM after 24 hrs by propidium iodide staining based flow cytometry (reference value: 12%)", "type": "functional"}, "IGROV-1 [22]": {"test_system": "IGROV-1", "experiment": "Cell cycle arrest in human IGROV1 cells assessed as accumulation at G1 phase at 5 uM after 24 hrs by propidium iodide staining based flow cytometry (reference value: 27%)", "type": "functional"}, "PC-3 [23]": {"test_system": "PC-3", "experiment": "Induction of apoptosis in human PC3 cells assessed as late apoptotic cells at 5 uM after 24 hrs by Annexin V/7-AAD staining based flow cytometry (reference value: 2%)", "type": "functional"}, "Mus musculus": {"test_system": "Mus musculus", "experiment": "Toxicity in SCID mouse assessed as weight loss at 40 mg/kg, ip after 3 to 4 weeks chronic treatment", "type": "organism-based", "design": "dose 40 mg/kg, route intraperitoneal", "conditions": "in vivo"}, "PC-3 [24]": {"test_system": "PC-3", "experiment": "Induction of apoptosis in human PC3 cells assessed as cleaved caspase-3 containing cells at 50 uM after 24 hrs by FACS analysis (reference value: 3%)", "type": "functional"}, "BXPC-3 [25]": {"test_system": "BXPC-3", "experiment": "Cell cycle arrest in human BxPC3 cells assessed as accumulation at < G1 phase at 5 uM after 24 hrs by propidium iodide staining based flow cytometry (reference value: 9%)", "type": "functional"}, "IGROV-1 [26]": {"test_system": "IGROV-1", "experiment": "Induction of apoptosis in human IGROV1 cells assessed as late apoptotic cells at 15 uM after 24 hrs by Annexin V/7-AAD staining based flow cytometry (reference value: 4%)", "type": "functional"}, "IGROV-1 [27]": {"test_system": "IGROV-1", "experiment": "Induction of apoptosis in human IGROV1 cells assessed as early apoptotic cells at 0.5 uM after 24 hrs by Annexin V/7-AAD staining based flow cytometry (reference value: 9%)", "type": "functional"}, "PC-3 [28]": {"test_system": "PC-3", "experiment": "Cytotoxicity against human PC3 cells after 48 hrs by trypan blue assay", "type": "functional, cell-based"}, "NCI-H460": {"test_system": "NCI-H460", "experiment": "Growth inhibition of human NCI-H460 cells after 48 hrs by SRB assay", "type": "functional", "conditions": "NCI-H460, 48 h"}, "PC-3 [29]": {"test_system": "PC-3", "experiment": "Induction of apoptosis in human PC3 cells assessed as healthy cells at 5 uM after 24 hrs by Annexin V/7-AAD staining based flow cytometry (reference value: 92%)", "type": "functional"}, "IGROV-1 [30]": {"test_system": "IGROV-1", "experiment": "Cell cycle arrest in human IGROV1 cells assessed as accumulation at G2 phase at 5 uM after 24 hrs by propidium iodide staining based flow cytometry (reference value: 19%)", "type": "functional"}, "IGROV-1 [31]": {"test_system": "IGROV-1", "experiment": "Induction of apoptosis in human IGROV1 cells assessed as cleaved caspase-3 containing cells at 50 uM after 24 hrs by FACS analysis (reference value: 4%)", "type": "functional"}, "PC-3 [32]": {"test_system": "PC-3", "experiment": "Cell cycle arrest in human PC3 cells assessed as accumulation at >G2 phase at 15 uM after 24 hrs by propidium iodide staining based flow cytometry (reference value: 6%)", "type": "functional"}, "IGROV-1 [33]": {"test_system": "IGROV-1", "experiment": "Cytotoxicity against human IGROV1 cells after 48 hrs by trypan blue assay", "type": "functional, cell-based"}, "PC-3 [34]": {"test_system": "PC-3", "experiment": "Induction of apoptosis in human PC3 cells assessed as healthy cells at 15 uM after 24 hrs by Annexin V/7-AAD staining based flow cytometry (reference value: 92%)", "type": "functional"}}, "note": "Activity calls are given as the source filed them. The rule behind the calls is not given here."}
{"smiles": "CN1CCN(c2ccc(C(c3ccccc3)C34CC5CC(CC(C5)C3)C4)cc2)CC1", "note": "(centres undefined)", "values": [{"measurement": "Activity", "setting": "IGROV-1 [1]", "value": 10, "unit": "%"}, {"measurement": "Activity", "setting": "BXPC-3 [2]", "value": 12, "unit": "%"}, {"measurement": "Activity", "setting": "PC-3 [3]", "value": 42, "unit": "%"}, {"measurement": "Activity", "setting": "BXPC-3 [4]", "value": 12, "unit": "%"}, {"measurement": "Activity", "setting": "PC-3 [5]", "value": 9, "unit": "%"}, {"measurement": "Activity", "setting": "IGROV-1 [6]", "value": 20, "unit": "%"}, {"measurement": "Activity", "setting": "BXPC-3 [7]", "value": 5, "unit": "%"}, {"measurement": "Activity", "setting": "PC-3 [8]", "value": 34, "unit": "%"}, {"measurement": "Activity", "setting": "BXPC-3 [9]", "value": 17, "unit": "%"}, {"measurement": "GI50 at 48 h", "setting": "[10]", "value": 5.3, "unit": "µM"}, {"measurement": "LC50", "setting": "NHDF", "value": 100, "unit": "µM"}, {"measurement": "TGI", "setting": "NHDF", "value": 9.6, "unit": "µM"}, {"measurement": "Activity", "setting": "PC-3 [11]", "value": 9, "unit": "%"}, {"measurement": "IC50", "setting": "[12]", "value": 37.6, "unit": "nM"}, {"measurement": "Activity", "setting": "BXPC-3 [13]", "value": 43, "unit": "%"}, {"measurement": "Activity", "setting": "PC-3 [14]", "value": 14, "unit": "%"}, {"measurement": "Activity", "setting": "IGROV-1 [15]", "value": 3, "unit": "%"}, {"measurement": "Activity", "setting": "PC-3 [16]", "value": 13, "unit": "%"}, {"measurement": "Activity", "setting": "IGROV-1 [17]", "value": 29, "unit": "%"}, {"measurement": "Activity", "setting": "SF-268", "value": "Active"}, {"measurement": "Activity", "setting": "BXPC-3 [18]", "value": 24, "unit": "%"}, {"measurement": "GI50", "setting": "LOX IMVI", "value": 3.36, "unit": "µM"}, {"measurement": "LC50 (concentration killing 50% of cells)", "setting": "LOX IMVI", "value": 8.41, "unit": "µM"}, {"measurement": "TGI", "setting": "LOX IMVI", "value": 5.88, "unit": "µM"}, {"measurement": "Activity", "setting": "IGROV-1 [19]", "value": 21, "unit": "%"}, {"measurement": "Activity", "setting": "PC-3 [20]", "value": 3, "unit": "%"}, {"measurement": "Activity", "setting": "BXPC-3 [21]", "value": 16, "unit": "%"}, {"measurement": "Activity", "setting": "IGROV-1 [22]", "value": 25, "unit": "%"}, {"measurement": "Activity", "setting": "PC-3 [23]", "value": 2, "unit": "%"}, {"measurement": "Activity", "setting": "Mus musculus", "value": "Non-toxic"}, {"measurement": "Activity", "setting": "PC-3 [24]", "value": 18, "unit": "%"}, {"measurement": "Activity", "setting": "BXPC-3 [25]", "value": 8, "unit": "%"}, {"measurement": "Activity", "setting": "IGROV-1 [26]", "value": 15, "unit": "%"}, {"measurement": "Activity", "setting": "IGROV-1 [27]", "value": 8, "unit": "%"}, {"measurement": "Activity", "setting": "PC-3 [28]", "value": "Active"}, {"measurement": "GI50", "setting": "NCI-H460", "value": 4.41, "unit": "µM"}, {"measurement": "LC50 (concentration killing 50% of cells)", "setting": "NCI-H460", "value": 100, "unit": "µM"}, {"measurement": "TGI", "setting": "NCI-H460", "value": 7.66, "unit": "µM"}, {"measurement": "Activity", "setting": "PC-3 [29]", "value": 92, "unit": "%"}, {"measurement": "Activity", "setting": "IGROV-1 [30]", "value": 19, "unit": "%"}, {"measurement": "Activity", "setting": "IGROV-1 [31]", "value": 68, "unit": "%"}, {"measurement": "Activity", "setting": "PC-3 [32]", "value": 5, "unit": "%"}, {"measurement": "Activity", "setting": "IGROV-1 [33]", "value": "Active"}, {"measurement": "Activity", "setting": "PC-3 [34]", "value": 89, "unit": "%"}]}
